Results taken from US6818407B2, “Anti-endotoxic antimicrobial cationic peptides and methods of use therfor” (priority 1998, dated 2004).
Ends that are not written are not given here.

Experiments:
[1] = tested on: E. coli; experiment: MIC, broth microdilution assay in polypropylene microtiter trays; type: cell-based; conditions: average of three separate experiments
In short: (§1)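 Each peptide's inhibitory endpoint is based on optical density: absence of any OD change for the chosen duration defines the minimal inhibitory concentration.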

[2] = tested on: S. aureus K147; experiment: as above; type: cell-based; conditions: average of three separate experiments
In short: as §1

[3] = tested on: P. aeruginosa; experiment: as above; type: cell-based; conditions: average of three separate experiments
In short: as §1

[4] = tested on: S. epidermis; experiment: as above; type: cell-based; conditions: average of three separate experiments
In short: as §1

[5] = tested on: S. aureus; experiment: as above; type: cell-based; conditions: average of three separate experiments
In short: as §1

[6] = tested on: Pseudomonas aeruginosa strain M2; experiment: Protection of neutropenic CD-1 mice challenged with Pseudomonas aeruginosa; type: in vivo; parameters: Survival post bacterial challenge, surviving mice: reference not given here; conditions: for Survival (%) post bacterial challenge: PBS 8
In short: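 Neutropenia induced by three i.p. cyclophosphamide doses ([…], alternate days); mice then infected i.p. with 200-300 organisms/mouse. Peptides (200 µg/mouse = 8 mg/kg) in buffered citrate given i.p. at 30 min (single) or 30 min and 16 hrs (double) post-challenge; PBS control; mean of 2 experiments.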

[7] = tested on: P. aeruginosa (H103); experiment: Synergy study (checkerboard titration) with hen white lysozyme; type: cell-based
Method: (§2) The biological activity of the peptides can be determined by standard methods known to those of skill in the art, such as Aminimal inhibitory concentration (MIC)≅ assay described in the present examples, whereby the lowest concentration at which no change in OD is observed for a given period of time is recorded as MIC. Alternatively, Afractional inhibitory concentration (FIC)≅ is also useful for determination of synergy between the peptides of the invention, or the peptides in combination with known antibiotics. FICs are performed by checkerboard titrations of peptides in one dimension of a microtiter plate, and of antibiotics in the other dimension, for example. The FIC is calculated by looking at the impact of one antibiotic on the MIC of the other and vice versa. […] Preferably, an FIC of less than 0.5 is obtained for synergism. As used herein, FIC can be determined as follows: [formula]

[8] = tested on: E. coli; experiment: as above; type: cell-based
Method: as §2

[9] = tested on: Salmonella typhi; experiment: as above; type: cell-based
Method: as §2

[10] = tested on: β-lactamase derepressed mutant (H547) of P. aeruginosa; experiment: microbe, parasite or virus in culture; type: cell-based; conditions: P. aeruginosa H547
Method: as §2
(§3) To test whether the peptides of the invention synergize with various antibiotics, the following method was employed. Fractional Inhibitory Concentration (FIC) was used to determine synergy of peptides combined with antibiotics (e.g., carbenicillin/ciprofloxacin) against Pseudomonas aeruginosa. The following methodology was followed:
(§4) (1) Determination of MIC of cationic peptides (MIC A):
(§5) 100 μl Mueller Hinton broth (MHB) was added per well
(§6) 12.5 μl of 10× test concentration peptide was added per well to get final peptide concentration of e.g., 128, 64, 32, . . . 0.025 μg/ml from row 1 to 11;
(§7) 10 μl of 10^−4 dilution of overnight bacterial culture was added per well.
(§8) (2) Determination of MIC of Carbenicillin/Ciprofloxacin (MIC B):
(§9) 100 μl MHB was added per well;
(§10) 100 μl of 2× test concentration of antibiotic was added in the first well of the row, and doubling dilutions performed across the plate from column 1 to 11;
(§11) (3) Determination of MIC of antibiotics (B) when combined with peptides at concentration A:
(§12) 100 μl Carbenicillin (512 μg/ml) or Ciprofloxacin (8 μg/ml) was added in each well of column 1; doubling dilutions were performed across the plate;
(§13) 100 μl of the peptide was added in all wells of row 1, mixed, and 100 μl withdrawn and added to row 2, etc., creating a checkerboard titration.
(§14) 10 μl of 10^−4 dilution of overnight culture was added per well;
(§15) plates were incubated at 37EC for 18-24 hours. Combination MIC values A and B were taken as the lowest concentration of drug that reduced bacterial growth by more than 50% in any given column.
(§16) (4) FIC index=FICA+FICB=(A)/MIC A+(B)/MIC B. An FIC index of approximately 0.5 or less indicates synergy; 1.0 reflects additivity; and >1.0 indicates antagonism.

[11] = tested on: mutant (Nal B, H744) of P. aeruginosa; experiment: microbe, parasite or virus in culture; type: cell-based
Method: as §2, §3, §4, §5, §6, §7, §8, §9, §10, §11, §12, §13, §14, §15, §16

[12] = Lethal endotoxemia in galactosamine-sensitized mice; type: in vivo, CD-1 mice; conditions: peptide 200 μg intraperitoneal within 10 min of 10 μg LPS; 24 hours post injection; 5 mice per group; no peptide 100
Method: To confirm this in vivo, endotoxic shock was induced by intraperitoneal injection of 10 μg of E.coli 0111:B4 LPS in phosphate-buffered saline (PBS; pH 7.2) into galactosamine-sensitized 8- to 10- week old female CD-1 mice (5 per group). In experiments involving peptides, 200 μg in 100 μl of sterile water was injected at separate intraperitoneal sites within 10 min of LPS injection. Survival was monitored at 24 hours post injection.

[13] = tested on: V. anguillarum; experiment: Protection of coho salmon, peptide delivered constantly by intraperitoneal mini-osmotic pump; type: in vivo, juvenile coho salmon; conditions: P-CN osmotic pump, 19 fish; for Accumulated Mortalities: 30 days, saline pump control 75%, bacteria alone 67%
Method: Constant delivery of peptide P-CN using intraperitoneal mini-osmotic pumps was carried out. Briefly, juvenile coho salmon were divided into three treatment groups: A. Bacterial injection alone (12 fish). B. Fish saline osmotic pump and bacterial injection (12 fish). C. A combination of P-CN osmotic pump and bacterial injection (19 fish). The fish were anaesthetized and implanted (peritoneal cavity) with mini-osmotic pumps having a pumping rate of 0.13 µl/hour. Heaters were placed in the tanks to keep the water temperature between 12 and 13° C. Pumps were filled with concentrated P-CN to deliver approximately […] peptide to fish over a 30-day period. Twelve days after pump implantation, the fish received intraperitoneal injections of V. anguillarum ([…]). Mortalities were first noticed on day 3 for the group injected with bacteria alone and on day 5 for the group which received saline osmotic pumps as well as bacterial injections. However, there was no significant difference in mortality between the bacterial injection alone group and the saline osmotic pump group (67% vs. 75%). Mortalities were delayed for the P-CN osmotic pump group. The P-CN osmotic pump group had only one fish die on day 6 over the 30 days experiments with an accumulated mortality of 5%. […] Furthermore, since cationic peptides are not effective in a single treatment and constant administration is necessary, this argues for the potential success of transgenic fish expressing peptide P-CN.
Fish loss from disease is a significant problem in aquaculture worldwide. However, expression of natural cationic peptide genes in fish could increase disease resistance because of continual cellular production of the antimicrobial peptides. In order to choose optimal peptides for transgenic fish, the antimicrobial activities of some cationic peptides were determined by testing minimum inhibitory concentrations (MICs) in vitro. […] The in vivo effect of CEME was examined by intraperitoneal injection of the peptide along with V. anguillarum into juvenile coho salmon. Fish in the bacteria alone control group had 60% mortality, while fish receiving peptide and bacteria injections had 82% mortality. […] Therefore, constant delivery of CEME and Pleurocidin-CN using intraperitoneal mini-osmotic pumps were carried out. Twelve days after pump implantation, the fish received intraperitoneal injections of V. anguillarum. The CEME and pleurocidin-CN pump group had longer survival time and lower mortalities than the control groups (50% Vs. 13%, and 75% Vs. 5%, respectively). Indolicidin transgenic cutthroat trout were made using a construct including an MT promoter, growth hormone signal, pre-region, indolicidin, and terminator. […]

[14] = tested on: Salmonella typhimurium wild type (C587); type: cell-based; conditions: Mueller Hinton Broth
Method: as §2
(§17) These peptides varied in activity (Table 11), however, the C-terminally capped pleurocidin especially and its N-terminally capped lysine derivative had much better activities against a variety of bacteria including Vibrio anguillarum (Va), Aeromonas salmonicida (As), Staphylococcus epidermidis (C621), Salmonella typhimurium wild type (C587) and phoP phoQ mutant (C610), and Pseudomonas aeruginosa wild type (K799) and outer membrane barrier altered (Z61). The antimicrobial peptide CEME, a fusion peptide made from portions of an insect defensin ceropin A and the bee venom peptide melittin (Piers and Hancock, Mol. Microbiol., 12:951-8, 1994), as well as the known antibiotics polymyxin B and gentamicin were used as controls. Replacing the pleurocidin N-terminus with the dermaseptin N-terminus had no effect. Replacing pleurocidin N-terminus with the ceratoxin N-terminus reduced activity. […] Amidating the C-terminus improved antimicrobial activity. Replacing the pleurocidin C-terminus with the misgurin C-terminus had no effect.
(§18) Bacteria included Vibrio anguillarum (Va), Aeromonas salmonicida (As), Staphylococcus epidermidis (C621), Salmonella typhimurium wild type (C587) and phoP phoQ mutant (C6 10), and Pseudomonas aeruginosa wild type (K799) and outer membrane barrier altered (Z61).

[15] = tested on: Staphylococcus epidermidis (C621); type: cell-based; conditions: Mueller Hinton Broth
Method: as §2, §17, §18

[16] = tested on: Vibrio anguillarum (Va); type: cell-based; conditions: Mueller Hinton Broth
Method: as §2, §17, §18

[17] = tested on: Pseudomonas aeruginosa outer membrane barrier altered (Z61); type: cell-based; conditions: Mueller Hinton Broth
Method: as §2, §17, §18

[18] = tested on: Salmonella typhimurium phoP phoQ mutant (C610); type: cell-based; conditions: Mueller Hinton Broth
Method: as §2, §17, §18

[19] = tested on: Aeromonas salmonicida (As); type: cell-based; conditions: Mueller Hinton Broth
Method: as §2, §17, §18

[20] = tested on: Pseudomonas aeruginosa wild type (K799); type: cell-based; conditions: Mueller Hinton Broth
Method: as §2, §17, §18

[21] = cationic peptide concentration, combined with lysozyme
[22] = lysozyme concentration, combined with the peptide

CC[C@H](C)[C@H](NC(=O)CNC(=O)[C@@H](NC(=O)[C@H](CCCCN)NC(=O)[C@H](CCCCN)NC(=O)[C@H](Cc1ccccc1)NC(=O)[C@H](CCCCN)NC(=O)[C@H](Cc1c[nH]c2ccccc12)NC(=O)[C@@H](N)CCCCN)[C@@H](C)CC)C(=O)NCC(=O)N[C@@H](C)C(=O)N[C@H](C(=O)N[C@@H](CC(C)C)C(=O)N[C@@H](CCCCN)C(=O)N[C@H](C(=O)N[C@@H](CC(C)C)C(=O)N[C@@H](CCCCN)C(=O)N[C@H](C(=O)N[C@@H](CC(C)C)C(=O)N[C@H](C(=O)N[C@H](C(=O)NCC(=O)N[C@@H](CC(C)C)C(=O)N1CCC[C@H]1C(=O)N[C@@H](C)C(=O)N[C@@H](CC(C)C)C(=O)N[C@@H](CCCCN)C(=O)N[C@@H](CC(C)C)C(=O)N[C@H](C(=O)N[C@@H](CC(C)C)C(=O)N[C@@H](CCCCN)C(=O)O)[C@@H](C)O)[C@@H](C)O)[C@@H](C)O)C(C)C)C(C)C)C(C)C [CM6]
MIC E. coli [1]: 2 µg/mL | MIC S. aureus K147 [2]: 32 µg/mL | MIC P. aeruginosa [3]: 8 µg/mL | MIC S. epidermis [4]: 8 µg/mL | MIC S. aureus [5]: 32 µg/mL | Survival post bacterial challenge, surviving mice ([6]; double dose (200 μg per mouse i.p. at 30 min and 16 hrs), 16 hr): 14 | Survival post bacterial challenge, surviving mice ([6]; double dose, 24 hr): 14 | Survival post bacterial challenge, surviving mice ([6]; double dose, 41 hr): 11 | Survival post bacterial challenge, surviving mice ([6]; double dose, 48 hr): 9 | Survival post bacterial challenge, surviving mice ([6]; double dose, 64 hr): 6 | Survival (%) post bacterial challenge ([6]; double dose, 64 hr): 42% | Survival post bacterial challenge, surviving mice ([6]; double dose, 72 hr): 6 | Survival (%) post bacterial challenge ([6]; double dose, 72 hr): 42% | Survival post bacterial challenge, surviving mice ([6]; double dose, 96 hr): 5 | Survival (%) post bacterial challenge ([6]; double dose, 96 hr): 35% | Survival post bacterial challenge, surviving mice ([6]; single dose (200 μg per mouse i.p. at 30 min), 16 hr): 15 | Survival post bacterial challenge, surviving mice ([6]; single dose, 24 hr): 15 | Survival post bacterial challenge, surviving mice ([6]; single dose, 41 hr): 13 | Survival post bacterial challenge, surviving mice ([6]; single dose, 48 hr): 11 | Survival post bacterial challenge, surviving mice ([6]; single dose, 64 hr): 9 | Survival (%) post bacterial challenge ([6]; single dose, 64 hr): 60% | Survival post bacterial challenge, surviving mice ([6]; single dose, 72 hr): 9 | Survival (%) post bacterial challenge ([6]; single dose, 72 hr): 60% | Survival post bacterial challenge, surviving mice ([6]; single dose, 96 hr): 7 | Survival (%) post bacterial challenge ([6]; single dose, 96 hr): 46% | FIC for combination of cationic peptide and lysozyme [7]: 0.63 | Lowest [CP] showing synergy [7, 21]: 5.21 µg/mL | Lowest [Lyso] showing synergy [7, 22]: 125 µg/mL | FIC for combination of cationic peptide and lysozyme [8]: 0.08 | Lowest [CP] showing synergy [8, 21]: 0.326 µg/mL | Lowest [Lyso] showing synergy [8, 22]: 7.8 µg/mL | FIC for combination of cationic peptide and lysozyme [9]: 0.50 | Lowest [CP] showing synergy [9, 21]: 5.21 µg/mL | Lowest [Lyso] showing synergy [9, 22]: 7.8 µg/mL | (B) MIC of Carb when combined with peptide ([10]; Carbenicillin with peptide at concentration (A)): 64 µg/mL | MIC A MIC of Peptides ([10]; peptide alone): 2 µg/mL | (A) Peptide doses together with Carb ([10]; peptide concentration in combination with Carbenicillin): 1 µg/mL | (B) MIC of Cipro when combined with peptide ([11]; ciprofloxacin with peptide at concentration (A), Nal B, H744): .125 µg/mL | MIC A MIC of Peptides ([11]; peptide alone, P. aeruginosa mutant Nal B, H744 (Table 5)): 1 µg/mL | (A) Peptide doses together with Cipro ([11]; peptide concentration in combination with ciprofloxacin, Nal B, H744): 1 µg/mL | Mortality (%) [12]: 100%

GWGSFFKKAAHVGKHVGKAALTHYL-NH2 [P-CN]
Accumulated Mortalities [13]: 5% | Accumulated Mortalities ([13]; listed as pleurocidin-CN): 5% | Mortalities (fish died on the day) ([13]; day 6 after V. anguillarum challenge): 1 | MIC C587 [14]: 4 µg/mL | MIC C621 [15]: 4 µg/mL | MIC Va [16]: 2 µg/mL | MIC Z61 [17]: 4 µg/mL | MIC C610 [18]: <0.5 µg/mL | MIC As [19]: 1 µg/mL | MIC K799 [20]: 8 µg/mL
